According to PMC4412288, “Crystal Structures of the Carboxyl cGMP Binding Domain of the Plasmodium falciparum cGMP-dependent Protein Kinase Reveal a Novel Capping Triad Crucial for Merozoite Egress” (PLoS Pathogens, 2015):
Values joined by “and” are separate entries in the source; they are usually repeats but may differ in a detail not shown here. Equal values may be shown once.

Experiments:
[1] = target: T1, PfPKG full regulatory domain (1–542) R484A (Plasmodium falciparum, UniProt Q8I719, R484A); assay type: binding; conditions: read-out: EC50 ± SEM (n) competition experiments
T1 construct: PfPKG full regulatory domain (1–542); His-tag (pQTEV, TEV site) (N, cleaved yes); made in house; host or cells: E. coli TP2000 (delta-cya)
Description: (§1) Measurements were performed in 150 mM NaCl, 20 mM MOPS plus 0.005% (w/v) CHAPS pH 7.0 using the Fusion a-FP microtiter plate reader at room temperature in a 384 well microtiterplate (Perkin Elmer, Optiplate, black). […] The KD values were calculated from sigmoidal dose-response curves.
(§2) For competition FP experiments, the protein concentration and the concentration of 8-Fluo-cGMP were fixed to give a polarization signal that was 50% of the maximum value obtained from direct FP measurements. […] FP signals were detected as indicated above. […] The EC50 values were calculated from sigmoidal dose-response curves.

[2] = target: T2, PfPKG CNB-D (401–542) Q532A (Plasmodium falciparum, UniProt Q8I719, Q532A); assay type: binding; conditions: PfCNB-D Q532A; read-out: EC50 ± SEM (n) competition experiments
T2 construct: 401–542 for CNB-D; His-tag (pQTEV, TEV site) (N, cleaved yes); made in house; host or cells: E. coli TP2000 (delta-cya)
Description: as §1, §2

[3] = target: T3, PfPKG full regulatory domain (1–542) R484A/Q532A/D533A (Plasmodium falciparum, UniProt Q8I719, D533A/Q532A/R484A); assay type: binding; conditions: read-out: EC50 ± SEM (n) competition experiments
T3 construct: PfPKG full regulatory domain (1–542); His-tag (pQTEV, TEV site) (N, cleaved yes); made in house; host or cells: E. coli TP2000 (delta-cya)
Description: as §1, §2

[4] = target: T4, PfPKG full regulatory domain (1–542) D533A (Plasmodium falciparum, UniProt Q8I719, D533A); assay type: binding; conditions: read-out: EC50 ± SEM (n) competition experiments
T4 construct: PfPKG full regulatory domain (1–542); His-tag (pQTEV, TEV site) (N, cleaved yes); made in house; host or cells: E. coli TP2000 (delta-cya)
Description: as §1, §2

[5] = target: T5, PfPKG CNB-D (401–542) D533A (Plasmodium falciparum, UniProt Q8I719, D533A); assay type: binding; conditions: PfCNB-D D533A; read-out: EC50 ± SEM (n) competition experiments
T5 construct: 401–542 for CNB-D; His-tag (pQTEV, TEV site) (N, cleaved yes); made in house; host or cells: E. coli TP2000 (delta-cya)
Description: as §1, §2

[6] = target: T6, PfPKG CNB-D (401–542) Wild type (Plasmodium falciparum, UniProt Q8I719); assay type: binding
T6 construct: 401–542 for CNB-D; His-tag (pQTEV, TEV site) (N, cleaved yes); made in house; host or cells: E. coli TP2000 (delta-cya)
Description: as §1, §2

[7] = target: T7, PfPKG CNB-D (401–542) R484A/Q532A/D533A (Plasmodium falciparum, UniProt Q8I719, D533A/Q532A/R484A); assay type: binding; conditions: PfCNB-D R484A/Q532A/D533A; read-out: EC50 ± SEM (n) competition experiments
T7 construct: 401–542 for CNB-D; His-tag (pQTEV, TEV site) (N, cleaved yes); made in house; host or cells: E. coli TP2000 (delta-cya)
Description: as §1, §2

[8] = target: T8, PfPKG CNB-D (401–542) R484A (Plasmodium falciparum, UniProt Q8I719, R484A); assay type: binding; conditions: PfCNB-D R484A; read-out: EC50 ± SEM (n) competition experiments
T8 construct: 401–542 for CNB-D; His-tag (pQTEV, TEV site) (N, cleaved yes); made in house; host or cells: E. coli TP2000 (delta-cya)
Description: as §1, §2

[9] = target: T9, PfPKG PfCNB-A (residues 1–173) (Plasmodium falciparum, UniProt Q8I719); assay type: binding; conditions: competition with 8-Fluo-cGMP, read-out: EC50 ± SEM (n) competition measurements
T9 construct: residues 1–173 for CNB-A; His-tag (pQTEV, TEV site) (N, cleaved yes); made in house; host or cells: E. coli TP2000 (delta-cya)
Description: as §1, §2

[10] = target: T10, PfPKG full regulatory domain (1–542) Q532A (Plasmodium falciparum, UniProt Q8I719, Q532A); assay type: binding; conditions: read-out: EC50 ± SEM (n) competition experiments
T10 construct: PfPKG full regulatory domain (1–542); His-tag (pQTEV, TEV site) (N, cleaved yes); made in house; host or cells: E. coli TP2000 (delta-cya)
Description: as §1, §2

[11] = target: T11, PfPKG full regulatory domain (1–542) Wild type (Plasmodium falciparum, UniProt Q8I719); assay type: binding; conditions: read-out: EC50 ± SEM (n) competition experiments
T11 construct: PfPKG full regulatory domain (1–542); His-tag (pQTEV, TEV site) (N, cleaved yes); made in house; host or cells: E. coli TP2000 (delta-cya)
Description: as §1, §2

PfCNB-C = tested on: PfCNB-C; parameters: method as in PMID 12817987; conditions: cited from earlier work
[12] = target: T12, PfCNB-C (residues 275–428) (Plasmodium falciparum, UniProt Q8I719); assay: FP binding measurements, isolated PfCNB-C domain
T12 construct: 275–428 for CNB-C; His-tag (pQTEV, TEV site) (N, cleaved yes); made in house; host or cells: E. coli TP2000 (delta-cya)
From the text: A manually designed construct consisting of PfPKG amino acids 1–853 with codons optimized for expression in E.coli was synthesized at Life Technologies. All PfPKG constructs were ligated into the His-tagged bacterial expression vector, pQTEV [28]. In designing the expression constructs of each CNB, we used the sequence of the cGMP selective CNB-B that we recently reported. The domain boundaries for the individual constructs are: residues 1–173 for CNB-A, 158–294 for CNB-B, 275–428 for CNB-C and 401–542 for CNB-D. All PfPKG proteins were expressed in TP2000 E. coli. The cells were grown at 37 °C to an OD600nm of 0.6, then induced with 0.5 mM IPTG, and grown for an additional 10 hours at 25 °C. Cells were harvested by centrifugation, then resuspended in 50 mM potassium phosphate (pH 7.5), 500 mM NaCl and 1 mM β-mercaptoethanol, and lysed using a cell disruptor (Constant Systems).
The direct fluorescence polarization (FP) assay was performed following the procedure from Moll et al. Measurements were performed in 150 mM NaCl, 20 mM MOPS plus 0.005% (w/v) CHAPS pH 7.0 using the Fusion a-FP microtiter plate reader at room temperature in a 384 well microtiterplate (Perkin Elmer, Optiplate, black). The protein concentration was varied while the concentration of 8-Fluo-cAMP/8-Fluo-cGMP (Biolog Life Science Institute (Bremen, Germany)) was fixed at 1–5 nM. […] The KD values were calculated from sigmoidal dose-response curves.
For competition FP experiments, the protein concentration and the concentration of 8-Fluo-cGMP were fixed to give a polarization signal that was 50% of the maximum value obtained from direct FP measurements. […] FP signals were detected as indicated above. Data were analyzed with GraphPad Prism 5.03 by plotting the polarization signal in mPol against the logarithm of the cyclic nucleotide concentration. The EC50 values were calculated from sigmoidal dose-response curves.

[13] = tested on: PfPKG with disabled PfCNB-D; parameters: method as in PMID 12817987; conditions: disabling PfCNB-D by mutation of a putative cGMP-binding residue; cited from earlier work
human PKG Iβ CNB-B = tested on: human PKG Iβ CNB-B; parameters: method as in PMID 24239458; conditions: cited from earlier work
[14] = target: T13, PfPKG PfCNB-B (residues 158–294) (Plasmodium falciparum, UniProt Q8I719); assay: Competition FP assay, isolated PfCNB-B domain; assay type: binding; conditions: competition with 8-Fluo-cGMP, read-out: EC50 ± SEM (n) competition measurements
T13 construct: 158–294 for CNB-B; His-tag (pQTEV, TEV site) (N, cleaved yes); made in house; host or cells: E. coli TP2000 (delta-cya)
Description: as §1, §2

PfPKG (1-853) Wild Type = target: T14, PfPKG (1-853) Wild Type (Plasmodium falciparum, UniProt Q8I719); assay type: biochemical
T14 construct: full-length PfPKG (residues 1–853); His-tag (pQTEV, TEV site) (N, cleaved yes); made in house; host or cells: E. coli TP2000 (delta-cya)
Description: (§3) Kinase activity was determined using a microfluidic mobility-shift assay on a Caliper DeskTop Profiler (Caliper Life Sciences, PerkinElmer). […] Reaction mixtures without cyclic nucleotide were used as controls. For electrophoretic separation of substrate and product, a ProfilerPro LabChip (4-sipper mode; Caliper Life Sciences, PerkinElmer) was used under the following conditions: downstream voltage-500 V, upstream voltage-1,900 V with a screening pressure of-1.3 psi.

PfPKG (1-853) D533A = target: T15, PfPKG (1-853) D533A (Plasmodium falciparum, UniProt Q8I719, D533A); assay type: biochemical
T15 construct: full-length PfPKG (residues 1–853); His-tag (pQTEV, TEV site) (N, cleaved yes); made in house; host or cells: E. coli TP2000 (delta-cya)
Description: as §3

[15] = target: T16, PfPKG (1-853) R484A/Q532A/D533A (Plasmodium falciparum, UniProt Q8I719, D533A/Q532A/R484A); assay type: biochemical; conditions: triple mutant versus wild type
T16 construct: full-length PfPKG (residues 1–853); His-tag (pQTEV, TEV site) (N, cleaved yes); made in house; host or cells: E. coli TP2000 (delta-cya)
Description: as §3

T6 sequence (Q8I719 401-542): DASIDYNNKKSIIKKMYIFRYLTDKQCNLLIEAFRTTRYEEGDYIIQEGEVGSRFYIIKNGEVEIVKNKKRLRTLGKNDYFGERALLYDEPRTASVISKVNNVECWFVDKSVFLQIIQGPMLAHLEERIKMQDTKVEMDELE
T12 sequence (Q8I719 275-428): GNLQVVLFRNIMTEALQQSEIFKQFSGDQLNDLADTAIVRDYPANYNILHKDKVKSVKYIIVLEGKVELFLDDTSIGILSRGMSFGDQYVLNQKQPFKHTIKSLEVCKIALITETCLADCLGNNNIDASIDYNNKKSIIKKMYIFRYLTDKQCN
T7 sequence (Q8I719 401-542 R484A/Q532A/D533A): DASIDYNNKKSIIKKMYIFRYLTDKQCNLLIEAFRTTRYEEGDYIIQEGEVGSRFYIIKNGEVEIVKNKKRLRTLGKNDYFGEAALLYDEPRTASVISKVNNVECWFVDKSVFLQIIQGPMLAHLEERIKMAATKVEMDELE
T10 sequence (Q8I719 1-542 Q532A): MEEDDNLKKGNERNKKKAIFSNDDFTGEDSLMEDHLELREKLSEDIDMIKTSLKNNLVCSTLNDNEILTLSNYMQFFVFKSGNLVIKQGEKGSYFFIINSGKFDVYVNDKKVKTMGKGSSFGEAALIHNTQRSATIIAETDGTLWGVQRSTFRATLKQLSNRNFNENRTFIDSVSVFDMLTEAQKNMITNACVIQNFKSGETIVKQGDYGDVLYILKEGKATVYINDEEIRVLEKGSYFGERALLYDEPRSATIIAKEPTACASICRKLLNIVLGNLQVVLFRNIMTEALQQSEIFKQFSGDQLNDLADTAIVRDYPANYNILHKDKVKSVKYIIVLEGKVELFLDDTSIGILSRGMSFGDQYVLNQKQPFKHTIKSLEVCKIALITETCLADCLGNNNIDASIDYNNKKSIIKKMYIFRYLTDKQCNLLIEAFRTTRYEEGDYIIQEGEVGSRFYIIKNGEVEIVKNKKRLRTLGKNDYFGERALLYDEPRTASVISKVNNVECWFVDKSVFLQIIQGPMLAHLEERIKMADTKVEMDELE
T2 sequence (Q8I719 401-542 Q532A): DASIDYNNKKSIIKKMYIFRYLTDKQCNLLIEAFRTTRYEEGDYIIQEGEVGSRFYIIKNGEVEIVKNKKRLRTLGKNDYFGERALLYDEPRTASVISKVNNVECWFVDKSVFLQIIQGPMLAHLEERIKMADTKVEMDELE
T8 sequence (Q8I719 401-542 R484A): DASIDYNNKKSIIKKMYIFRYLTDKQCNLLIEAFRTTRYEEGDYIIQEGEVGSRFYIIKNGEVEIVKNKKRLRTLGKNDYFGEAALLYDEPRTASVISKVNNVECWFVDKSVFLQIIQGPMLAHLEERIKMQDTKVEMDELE
T1 sequence (Q8I719 1-542 R484A): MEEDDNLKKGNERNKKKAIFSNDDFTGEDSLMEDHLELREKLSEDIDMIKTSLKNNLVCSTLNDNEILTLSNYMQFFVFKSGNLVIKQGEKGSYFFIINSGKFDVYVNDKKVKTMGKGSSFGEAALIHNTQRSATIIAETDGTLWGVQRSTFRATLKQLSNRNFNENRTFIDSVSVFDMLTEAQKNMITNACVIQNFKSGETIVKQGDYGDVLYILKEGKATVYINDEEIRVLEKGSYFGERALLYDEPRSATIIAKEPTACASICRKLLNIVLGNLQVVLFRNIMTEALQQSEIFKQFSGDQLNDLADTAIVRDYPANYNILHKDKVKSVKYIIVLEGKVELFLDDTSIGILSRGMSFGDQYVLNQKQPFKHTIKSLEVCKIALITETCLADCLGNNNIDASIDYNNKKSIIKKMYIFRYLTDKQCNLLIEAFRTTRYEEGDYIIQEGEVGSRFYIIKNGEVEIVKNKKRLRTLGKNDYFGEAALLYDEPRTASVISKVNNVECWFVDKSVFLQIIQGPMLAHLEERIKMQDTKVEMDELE
T11 sequence (Q8I719 1-542): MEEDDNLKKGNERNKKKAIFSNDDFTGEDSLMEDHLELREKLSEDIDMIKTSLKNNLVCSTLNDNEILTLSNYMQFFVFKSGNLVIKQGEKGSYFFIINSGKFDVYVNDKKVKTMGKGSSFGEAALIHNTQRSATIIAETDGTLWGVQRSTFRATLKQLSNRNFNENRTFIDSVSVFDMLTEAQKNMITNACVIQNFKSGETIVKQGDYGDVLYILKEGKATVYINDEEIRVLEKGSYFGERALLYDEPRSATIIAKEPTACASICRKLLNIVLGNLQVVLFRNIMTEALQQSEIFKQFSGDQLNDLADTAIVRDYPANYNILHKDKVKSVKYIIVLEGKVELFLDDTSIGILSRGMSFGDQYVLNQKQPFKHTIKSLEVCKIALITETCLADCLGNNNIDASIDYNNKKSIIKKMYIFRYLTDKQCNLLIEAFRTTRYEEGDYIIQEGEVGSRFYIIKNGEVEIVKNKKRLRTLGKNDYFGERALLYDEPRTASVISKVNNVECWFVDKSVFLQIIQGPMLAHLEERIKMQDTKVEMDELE
T4 sequence (Q8I719 1-542 D533A): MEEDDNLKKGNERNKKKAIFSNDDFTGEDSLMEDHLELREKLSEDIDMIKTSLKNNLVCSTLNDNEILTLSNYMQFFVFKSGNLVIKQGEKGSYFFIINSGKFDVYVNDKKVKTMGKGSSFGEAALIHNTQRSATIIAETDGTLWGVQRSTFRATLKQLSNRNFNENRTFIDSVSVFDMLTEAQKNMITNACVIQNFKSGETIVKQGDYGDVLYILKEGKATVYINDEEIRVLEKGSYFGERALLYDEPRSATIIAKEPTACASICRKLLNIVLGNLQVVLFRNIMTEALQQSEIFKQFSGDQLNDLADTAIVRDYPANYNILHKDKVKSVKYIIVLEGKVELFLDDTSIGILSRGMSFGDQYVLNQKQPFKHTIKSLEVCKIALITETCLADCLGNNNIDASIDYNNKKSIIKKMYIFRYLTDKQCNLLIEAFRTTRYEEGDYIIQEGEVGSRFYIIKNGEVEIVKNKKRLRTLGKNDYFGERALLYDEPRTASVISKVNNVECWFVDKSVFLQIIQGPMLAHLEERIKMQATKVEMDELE
T9 sequence (Q8I719 1-173): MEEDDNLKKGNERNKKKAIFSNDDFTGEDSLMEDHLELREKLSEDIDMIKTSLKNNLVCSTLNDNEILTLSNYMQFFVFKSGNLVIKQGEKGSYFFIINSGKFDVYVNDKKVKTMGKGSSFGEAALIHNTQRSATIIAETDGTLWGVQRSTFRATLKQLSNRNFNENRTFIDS
T3 sequence (Q8I719 1-542 R484A/Q532A/D533A): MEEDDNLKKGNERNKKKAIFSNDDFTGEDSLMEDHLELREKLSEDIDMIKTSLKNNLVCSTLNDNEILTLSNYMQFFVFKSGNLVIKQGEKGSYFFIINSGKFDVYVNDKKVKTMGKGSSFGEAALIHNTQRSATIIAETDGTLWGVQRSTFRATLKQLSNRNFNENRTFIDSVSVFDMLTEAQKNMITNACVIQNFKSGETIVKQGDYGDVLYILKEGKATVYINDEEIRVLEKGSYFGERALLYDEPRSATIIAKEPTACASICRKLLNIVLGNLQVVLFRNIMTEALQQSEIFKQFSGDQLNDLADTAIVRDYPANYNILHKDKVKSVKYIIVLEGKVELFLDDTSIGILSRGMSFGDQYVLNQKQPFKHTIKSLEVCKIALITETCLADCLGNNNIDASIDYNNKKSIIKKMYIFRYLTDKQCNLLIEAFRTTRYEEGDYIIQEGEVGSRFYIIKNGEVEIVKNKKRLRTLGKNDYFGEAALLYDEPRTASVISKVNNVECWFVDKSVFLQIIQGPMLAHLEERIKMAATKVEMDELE
T16 sequence (Q8I719 whole entry R484A/Q532A/D533A, the tested form may be a part): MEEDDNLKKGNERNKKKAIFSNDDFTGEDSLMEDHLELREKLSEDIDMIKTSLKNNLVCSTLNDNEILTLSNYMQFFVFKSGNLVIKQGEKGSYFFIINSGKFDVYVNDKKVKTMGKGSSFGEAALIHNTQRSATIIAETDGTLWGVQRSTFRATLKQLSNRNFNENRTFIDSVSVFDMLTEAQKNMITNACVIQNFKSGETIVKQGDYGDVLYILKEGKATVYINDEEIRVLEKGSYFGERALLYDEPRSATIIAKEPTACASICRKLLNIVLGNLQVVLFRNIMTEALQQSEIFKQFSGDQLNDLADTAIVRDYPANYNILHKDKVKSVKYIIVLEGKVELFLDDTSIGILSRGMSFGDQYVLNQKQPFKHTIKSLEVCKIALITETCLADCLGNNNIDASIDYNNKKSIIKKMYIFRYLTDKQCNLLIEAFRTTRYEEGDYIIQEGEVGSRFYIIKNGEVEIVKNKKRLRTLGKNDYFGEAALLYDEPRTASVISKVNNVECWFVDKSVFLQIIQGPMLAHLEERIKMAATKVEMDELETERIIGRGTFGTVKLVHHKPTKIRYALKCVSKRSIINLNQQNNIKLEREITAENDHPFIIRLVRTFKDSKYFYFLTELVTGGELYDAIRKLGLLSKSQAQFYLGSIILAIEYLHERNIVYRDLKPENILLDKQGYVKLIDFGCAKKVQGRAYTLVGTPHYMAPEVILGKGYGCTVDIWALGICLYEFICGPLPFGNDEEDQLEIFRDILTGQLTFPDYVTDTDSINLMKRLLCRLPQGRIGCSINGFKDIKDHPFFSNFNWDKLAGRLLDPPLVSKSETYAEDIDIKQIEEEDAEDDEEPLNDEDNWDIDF
T13 sequence (Q8I719 158-294): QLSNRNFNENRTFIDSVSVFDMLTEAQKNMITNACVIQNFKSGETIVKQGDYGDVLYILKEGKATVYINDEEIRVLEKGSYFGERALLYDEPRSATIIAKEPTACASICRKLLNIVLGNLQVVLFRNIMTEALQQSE
T5 sequence (Q8I719 401-542 D533A): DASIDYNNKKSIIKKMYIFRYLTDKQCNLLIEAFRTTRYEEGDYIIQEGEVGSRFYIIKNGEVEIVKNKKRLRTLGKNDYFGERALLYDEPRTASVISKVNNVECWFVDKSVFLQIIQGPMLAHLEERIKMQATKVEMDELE

Nc1nc2c(ncn2[C@@H]2O[C@@H]3COP(=O)(O)O[C@H]3[C@H]2O)c(=O)[nH]1 [cGMP, Cyclic GMP]
EC50 [1]: 0.96 ± 0.02 µM
EC50 [2]: 2.4 ± 0.1 µM
EC50 [3]: 1.4 ± 0.1 µM
EC50 [4]: 0.61 ± 0.05 µM
EC50 [5]: 0.76 ± 0.04 µM
EC50 ([6]; PfCNB-D wild type, competition with 8-Fluo-cGMP, read-out: EC50 ± SEM (n) competition experiments): 0.038 µM and 0.0378 µM
selectivity for cGMP ([6]; PfCNB-D, cGMP over cAMP): over 190 fold
EC50 [7]: 7 µM and 7.2 µM
EC50 [8]: 3.2 ± 0.4 µM
EC50 [9]: 1 µM
EC50 [10]: 2.2 ± 0.1 µM
EC50 [11]: 0.079 ± 0.004 µM
cGMP binding (PfCNB-C): could not be detected
cGMP binding [12]: little to no binding
increase in the activation constant for cGMP (Ka:cGMP) [13]: 10 fold
EC50 (human PKG Iβ CNB-B): 0.215 µM
EC50 [14]: 1.2 µM
Ka ± SEM (n), activation constant (PfPKG (1-853) Wild Type): 66 nM
Ka ± SEM (n), activation constant (PfPKG (1-853) D533A): 330 nM
increase of Ka:cGMP on mutating all three residues [15]: over 28 fold

Nc1ncnc2c1nc(SCCNC(=S)Nc1ccc(-c3c4ccc(=O)cc-4oc4cc(O)ccc34)c(C(=O)O)c1)n2C1OC2COP(=O)(O)OC2C1O (stereo not drawn) [8-Fluo-cAMP]
affinity of PfCNB-C for the fluorescent nucleotide [12]: very weak affinity
